Experiment [1] relates to stable U20S reporter cells harboring Per2-dLuc. The experiment can be described thus: Per2 assay for evaluating the potency of test compounds (circadian luciferase reporter). The class given is cell-based. Conditions: amplitude of Per2-dLuc luminescence vs log concentration. In outline:
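U2OS Per2-dLuc cells grown 48 h at 37 °C, then synchronized with 5 μM forskolin plus 1 mM luciferin and dosed with 3-fold compound dilutions.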

In experiment [2] the test system is core clock gene mRNAs in livers of ICR mice. The experiment can be described thus: Four day study, liver clock gene mRNA by RT-qPCR, ICR mice. As to conditions: 50 mg/kg PO BID 4 days; for liver Per2 expression: ICR mice, ZT6. In kind it is in vivo, mouse. On the procedure:
Male ICR mice (weighing 30-35 g), obtained from Charles River Laboratories (Hollister, CA), were used for the experiment following at least 3 days of acclimation. Mice were dosed with vehicle (WFI or 10% Kolliphor) or compound (50 mg/kg, dose volume 5 mL/kg, PO) for 4 days BID (twice a day), beginning in the afternoon of the first day. The last dose of compound or vehicle was administered on the morning of harvest. On the day of harvest (6 hours following the final dose), mice were euthanized by CO2 asphyxiation and 50 mg of liver tissue was excised and placed in a tube containing 500 μl of RNA later.
E.Z.N.A.® HP Total RNA Isolation Kits (R6812-01 and the protocol described in the Manual, Revised 2010) were utilized to prepare and isolate RNA from the liver samples. To prepare the RNA samples, 10-30 mg of sample was removed from RNA-Later and placed in a 1.5 ml microfuge tube. GTC lysis buffer (700 μl) was added to the tissue, which was homogenized with a rotor-stator homogenizer (e.g. Tissue-Tearor, Model #985370 BioSpec Products with 4.5 mm probe, Cat. #985370-04), and then centrifuged at full speed (>13,000×g) for 5 minutes. The cleared supernatant was transferred by pipetting to a DNA Clearance Column Pre-inserted in a 2 mL Collection Tube. The assembled column was centrifuged at 13,000×g for 1 minute, and the flow-through was saved. An equal volume (700 μl) of 70% ethanol was added to the lysate and mixed. The sample was then applied to a HiBind RNA spin column placed into a 2 ml collection tube, which was centrifuged at 10,000×g for 60 seconds at room temperature. RNA Wash Buffer I (250 μl) was added by pipetting directly onto a new HiBind RNA column inserted in a 2 ml collection tube. The assembled column was centrifuged at 10,000×g for 60 seconds. The RNA column was placed into a new 2 ml collection tube. DNase I stock solution is pipetted (75 μl) directly onto the surface of the HiBind RNA resin in each column (Using DNAse Digestion with RNase Free DNase Set (E1091): for each HiBind RNA column, the DNase I stock solution was prepared as followed: E.Z.N.A.® DNase I Digestion Buffer 73.5μl, RNase Free DNase I (20 Kunitz/μl) 1.5 μl=Total Volume 75 μl.). The column with bound RNA was incubated at room temperature (25-30° C.) for 15 minutes. RNA Wash Buffer I (500 μl) was added to the column and placed on a bench top for 2 minutes. After centrifuging at 10,000×g for 60 seconds, discarding the flow-through, 500 μl of RNA Wash Buffer II was added and centrifuged at 10,000×g for 60 seconds. Another 500 μl of RNA Wash Buffer II was added and the column assembly was centrifuged at 10,000×g for 60 seconds. The column was centrifuged for 2 minutes at maximum speed to completely dry the HiBind matrix. The column was placed in a clean 1.5 ml microcentrifuge tube and 40-70 μl of molecular biology grade water is added. After sitting for 1 minute, the column was centrifuged for 2 minutes at maximum speed to elute the RNA. The isolated RNA was collected into the collection tube.
RediPlate 96 RiboGreen RNA Quantification Kit (Invitrogen) RediPlate standard curve was prepared by transferring 20 μl reconstituted RNA standard to a RediPlate well reconstituted in 180 μl RediPlate TE buffer. For liver RNAs prepared from 30-100 mg of tissue using a kit similar to the Omega Bio-Tek HP Total RNA Kit and eluted in RNAse-free water in a volume of 50 μl (microliters), 5 μl of the total RNA is diluted in 195 μl of RediPlate TE buffer (1:40 dilution of RNA), mix. After transferring 5 μl to RediPlate well reconstituted in 195 μl TE buffer and incubating 10 min. at RT, Fluorescence Intensity of wells with standards and samples were read in a Tecan M200 with Excitation set at 480 nm and Emission set at 520 nm with the gain set to −70%. Alternatively, one can use the FlexStation 3 with Ex 488 nm and Em 525 nm and a Cutoff of 515 nm.

Experiment [3] has as its system cortisone-induced insulin resistance in Sprague Dawley rats. The experiment can be described thus: Cortisone induced insulin resistance in rats. The class given is in vivo, rat. As to conditions: cortisone 30 mg/kg sc + 30 mg/kg po. On the procedure:
Animals were dosed with cortisone (30 mg/kg sc qd) in combination with test compounds for 6 days and then terminated 27 hours after the final dose of cortisone. A reference standard (Mifepristone) was also included. Cortisone 21-acetate (Sigma C-3130) was supplied by RenaSci and administered using a dose volume of 5 ml/kg via the subcutaneous route as a fine suspension in 1% methylcellulose. […] Mifepristone (Sigma M8046) was provided by RenaSci.
Glucose and insulin determinations were performed on plasma samples obtained from a tail vein bleed taken after a 12 h fast, approximately 27 h after the last cortisone dose. Animals were then terminated and a terminal (cardiac) blood sample taken from which plasma was prepared.
Thirty four male Sprague Dawley rats (weight range 200-250 g) were ordered from Charles River, Margate, Kent, UK. […] Subsequently, animals underwent a 3 day baseline period during which they were dosed once daily with vehicle at t=0 h (07:00). […] Body weight was recorded immediately before dosing began at 07:00 (t=0 h).
On Day 6 of dosing rats were fasted for 12 h beginning at 22:30 (timed to coincide with the Day 7 termination). […] At 10:30 on Day 7, 27 h after the final dose of cortisone, a blood sample (300 μl) was taken from the lateral tail vein into tubes containing EDTA (Sarstedt 16.444). The blood was centrifuged and resultant plasma aliquot stored at −75° C. The animals were euthanized by CO2 asphyxiation followed by cervical dislocation. Terminal blood (approximately 10 ml) was collected by cardiac puncture into tubes containing EDTA (Sarstedt 5 ml 32.332) and then centrifuged and plasma stored at −75° C. The tail vein plasma was analyzed for glucose (n=2) using a commercial clinical reagent (Thermoelectron Infinity glucose reagent (TR15421) and for insulin (n=1) using the Mercodia ultrasensitive rat insulin rat ELISA (10-1251-10).
Plasma glucose and insulin were analyzed by robust regression or general linear model with treatment as a factor and bleeding order and baseline body weight as covariates. A log transformation was used if appropriate. Appropriate multiple comparison tests (two-tailed) were used to determine significant differences from the vehicle group and from the Cortisone group. P<0.05 was considered to be statistically significant.

The subject of experiment [4] is C57/Bl6J DIO mice. Put plainly: 7 day dosing in diet-induced obesity (DIO) mouse model. The class given is in vivo. An excerpt: (§1) Male C57/Bl6J DIO mice were obtained from The Jackson Laboratory (Sacramento, Calif.). […] Animals were accustomed to these conditions for at least 2 weeks before experimentation and used at approximately 24 weeks of age.
(§2) Significance was accepted when p<0.05.

For experiment [5], the system named is C57/Bl6J DIO mice. Put plainly: Increasing dosages of Compound 72 for 7 days in diet-induced obesity mouse model. The class given is in vivo. As to conditions: positive control 30 mg/kg QD PO 7 days.
Excerpt: as §1, §2
Male C57/Bl6J DIO mice were obtained from The Jackson Laboratory (Sacramento, Calif.). […] Animals were accustomed to these conditions for at least 2 weeks before experimentation and used at approximately 26 weeks of age.

Experiment [6] deals with db/db mouse model of type II diabetes. As to conditions: db/db mice, positive control 30 mg/kg QD PO 7 days.
Description: Male db/db mice homozygous for Lepr^db (6 weeks of age), were obtained from The Jackson Laboratory (Bar Harbor, Me.). Mice were group housed on a normal light/dark cycle (lights on: 07:00-19:00 h) with ad libitum access to a standard pelleted mouse diet and water. Animals were accustomed to these conditions for 2 weeks before experimentation. […] At 10:30 pm on the evening prior to endpoint measurement, mice were placed into clean cages and given free access to water, but not food for a period of 12 hours before the fasting blood glucose measurement. On the final day of the study, animals were dosed as normal, and then underwent a tail cut injury 2 hours prior to measurement of fasting blood glucose, to allow recovery from any stress the procedure might cause. Fasting blood glucose (FBG) was assessed from the animals at 10:30 am using an AlphaTRAK glucometer (Abbott Laboratories, USA). Following the FBG measurement blood was collected from each mouse, using a tail milking technique, into a capillary tube. Capillary tubes were centrifuged in a hematocrit (BD Triac 0200) and the resultant plasma transferred to an eppendorff. This sample, labelled as t=Ohr, was frozen at −80° C. to allow later measurement of insulin. At 11:30 am each animal was dosed with 0.5 g/kg of glucose, then blood glucose was measured at t=15, 30, 60, 90 and 120 minutes after glucose load. At the end of the OGTT blood was collected for a t=2 hr insulin determination as described above.
Fasting blood glucose values and glucose measurements taken during the OGTT were averaged and graphed (GraphPad Prism, GraphPad Software, La Jolla, Calif.). The area under the curve (AUC) was calculated for each individual animal. Plasma insulin levels were determined using an Ultrasensitive Insulin ELISA (ALPCO, Salem, N.H.). […] Insulin data was also represented in GraphPad Prism format. Statistical analysis was performed using one-way ANOVA followed by the appropriate post-test. Significance was accepted when p<0.05. Data are presented as mean and S.E.M.

Structures are written as SMILES. Some results are limits rather than exact numbers.

The molecule `O=C1C2CCC(C2)N1CC(O)Cn1c2ccc(F)cc2c2cc(F)ccc21` (stereo not shown) [Compound 48, 2-(3-(3,6-difluoro-9H-carbazol-9-yl)-2-hydroxypropyl)-2-azabicyclo[2.2.1]heptan-3-one] returned a 50% effective concentration (EC50) in experiment [1] of 120 nM. In experiment [2] (ICR mice liver), the Cry2 transcripts result was “decrease” and the “increase in Bmal1 mRNA at ZT6” value is 8 fold. For the same molecule, in experiment [2], the “liver Per2 expression” value was “suppression”.
On to `COC1CCCN(CC(O)Cn2c3ccc(F)cc3c3cc(F)ccc32)C1=O` (stereo not shown) [Compound 57, 1-(3-(3,6-difluoro-9H-carbazol-9-yl)-2-hydroxypropyl)-3-methoxypiperidin-2-one], for which, in experiment [1], the 50% effective concentration (EC50) turned out to be 329 nM. The “increase in Bmal1 mRNA at ZT6” value in experiment [2] (ICR mice liver) was no less than 2 fold. Moreover, in experiment [2], the “liver Per2 expression” value is listed as “suppression”.
As for `CC#C[C@]1(O)CC[C@H]2[C@@H]3CCC4=CC(=O)CCC4=C3[C@@H](c3ccc(N(C)C)cc3)C[C@@]21C` [Mifepristone, mifepristone, reference compound], the HOMA-IR in experiment [3] (insulin resistant rats) is on record as 29.99+/−2.54 units. The fasted plasma insulin in experiment [3] (rats) came to 3.62 ± 0.29 ng/mL. Further, the fasted plasma glucose in experiment [3] (rats, unit printed as ng/mL) turned out to be 7.43 ± 0.27 ng/mL.
For the molecule `CN(CCOc1ccc(CC2SC(=O)NC2=O)cc1)c1ccccn1` (stereo not shown) [Rosiglitazone, reference compound], in the experiment on C57/Bl6J DIO mice [4] (30 mg/kg PO 7 days), the HOMA-IR is 24.60+/−1.42 units, the “plasma insulin at t=0” value came out at 2.70 ± 0.12 ng/mL and the “plasma insulin at t=2 hr” value was 2.30 ± 0.06 ng/mL. This molecule also gave a fasting blood glucose with C57/Bl6J DIO mice [4] (positive control 30 mg/kg PO 7 days) of 153.9 ± 5.05 mg/dL. This molecule also displayed a fasting blood glucose with C57/Bl6J DIO mice [5] of 161.1 ± 8.06 mg/dL. In addition, in experiment [6], the HOMA-IR was 50.58+/−3.52 units, the fasting blood glucose stood at 280.4 ± 13.66 mg/dL, the “plasma insulin at t=0” value came out at 3.05 ± 0.14 ng/mL and the “plasma insulin at t=2 hr” value was 2.28 ± 0.08 ng/mL.

The record behind these values is US10214507B2, “Carbazole-containing amides, carbamates, and ureas as cryptochrome modulators” (Reset Therapeutics, Inc., priority 2014, dated 2019).
